Source: patent publication US8183292B2, “Chiral cyclic β-amino acids and their derivatives, pharmaceutical compositions containing them and the use of such compounds” (BioBlocks Magyarorszag Gyogyszerkemiai es Fejleszto Kft., priority 2006, dated 2012)

How the values were obtained:
P-glycoprotein = test: Reversal of multidrug resistance: rhodamine 123 accumulation in human mdr1 transfected L5178 mouse T-cell lymphoma cells (flow cytometry); assay type: cell-based; conditions: for Vrel = effect related to Verapamil: Verapamil at 10 μg/ml; for R = ratio of fluorescence and activity / R (activity ratio, fluorescence): rhodamine 123; for Multidrug resistance reversing effect (in words): 4 and 40 μg/mL, at higher concentration multiple of fluorescence activity of Verapamil
Method: L5178 mouse T-cell lymphoma cells were transfected with pHa MDR1/A retrovirus, by the method as described by J. L. Weaver [J. L. Weaver, G. Szabó, P. S. Pine, M. M. Gottesmann, S. Goldenberg and A. Aszalos: The effect of ion channel blockers, immunosuppressive agents and other drugs on the activity of the multidrug transporter. Int. […] Mdr-1-expressing cell lines were selected by culturing the transfected cells with 60 ng/mL of colchicine to maintain the expression of the MDR phenotype. L5178 (parent) mouse T-cell lymphoma cells and the human mdr1 transfected subline were cultured in McCoy's 5A medium supplemented with 10% by mass of heath-inactivated horce serum, L-glutamine and antibiotics. Both cell lines were cultured at 37° C. The mouse lymphoma cell line was maintained in a 5% CO2 atmosphere.
The assays were carried out by the method as described by J. Molnár et al. [J. Molnár, I. Mucsi, J. Nacsa, A. Hevér, N. Gyémánt, K. Ugocsai, P. Hegyes, S. Kiessig, D. Gaal, H. Lage and A. Varga: New silicon compounds as resistance modifiers against multidrug-resistant cells. […] The cell density was set to a value of 2×10^6/mL, then the cells were resuspended in a serum-free McCoy's 5A medium and divided in aliquots of 0.5 mL in Eppendorf centrifuge tubes. The tested compounds were added in different concentrations to different volumes (2.0-20.0 μL) of 1.0-10.0 mg/mL stock solutions and the samples were incubated for 10 minutes at room temperature. […] The fluorescence of the cell population was measured with a Beckton Dickinson FACScan flow cytometer. […] The percentage value of the mean fluorescence intensity was calculated for the treated MDR and for the parental cell lines as compared with the values obtained with the untreated cells. The activity ratio (R) was calculated on the basis of the measured fluorescence values by the following equation: […]

[1] = tested on: MRC-5 human fibroblast cell lines; test: Cytotoxicity on MRC-5 human fibroblast cell lines (Alamar Blue/resazurine, 24 h); assay type: cell-based; conditions: MRC-5 cells, 24 hours incubation, 1% DMSO
Method: The toxic effect of the compounds was measured on MRC-5 human fibroblast cell lines in accordance with the method that has been described in the article published by Molnár et al. [L. Molnár, G. M. Keserü, Á. Papp, Z. Lörincz, G. Ambrus és F. Darvas.: A neural network based classification scheme for cytotoxicity predictions: Validation on 30,000 compounds, Bioorg. Med. Chem. Lett. 16(4), 1037-9 (2006)]. The cells were incubated for a cell cycle (24 hours) with solutions of various concentrations prepared from the compounds, in the presence of 1% of DMSO. 3 parallel measurements were carried out with 6 different concentrations. The ratio of the viable cells was determined by reducing the Alamaar Blue (resazurine) reagent that was followed fluorimetrically. The measured materials were not toxic on the given cell line in a concentration of 128 μmol after incubation for one day.
In the following Table 1 the cytotoxicity of some compounds according to the invention is given.

SMILES	melting point [°C]	Vrel = effect related to Verapamil (P-glycoprotein; Table 2, 4 μg/ml)	R (activity ratio, fluorescence) (P-glycoprotein; Table 2, 4 μg/ml)	Vrel = effect related to Verapamil (P-glycoprotein; Table 2, 40 μg/ml)	R (activity ratio, fluorescence) (P-glycoprotein; Table 2, 40 μg/ml)	Survival (%) [c = 128 μM] [1] [%]	further results
CC1(C)[C@H]2C[C@@H]3C(=O)N[C@@H]3[C@@H]1C2 [Compound 10, (1R,2R,5S,7R)-8,8-Dimethyl-3-Azatricyclo[5.1.1.0^2,5]Nonan-4-One]	68 to 72						
CC(C)(C)OC(=O)N1C(=O)[C@H]2C[C@H]3C[C@@H]([C@H]21)C3(C)C [Compound 11, (1R ,2R,5S,7R)-N-tert-Butoxycarbonyl-8,8-Dimethyl-3-Azatricyclo[5.1.1.0^2,5]-Nonan-4-One]	64 to 66						
CNC(=O)[C@H]1[C@@H](NC(=O)OC(C)(C)C)C[C@H]2C[C@H]1C2(C)C [Compound 12, tert-Butyl (1R,2R,3S,5R)-(2-Methylaminocarbonyl-6,6-Dimethylbicyclo[3.1.1]-Hept-3-yl)Carbamate]	104 to 105						
CC1(C)[C@H]2C[C@H](C(=O)O)[C@H](N)[C@@H]1C2 [Compound 13, (1R,2R,3S,5R)-2-Amino-6,6-Dimethylbicyclo[3.1.1]Heptan-3-Carboxylic Acid]	270						
CCOC(=O)[C@H](Cc1ccccc1)NC(=O)[C@H]1C[C@H]2C[C@@H]([C@H]1NC(=O)OC(C)(C)C)C2(C)C [Compound 17]							Vrel = effect related to Verapamil (P-glycoprotein; Table 3, 4 μg/ml): 1.58; R = ratio of fluorescence and activity (P-glycoprotein; Table 3, 4 μg/ml): 23.1; Vrel = effect related to Verapamil (P-glycoprotein; Table 3, 40 μg/ml): 6.45; R = ratio of fluorescence and activity (P-glycoprotein; Table 3, 40 μg/ml): 94.24
COC(=O)N(C1c2ccccc2-c2ccccc21)[C@H]1[C@@H](C(=O)O)C[C@H]2C[C@@H]1C2(C)C [Compound 18, (1R,2R,3S,5R)-2-(9H-Fluoren-9-yl-Methoxycarbonylamino)-6,6-Dimethylbicyclo[3.1.1]Heptan-3-Carboxylic Acid]	160 to 162						
CC1(C)[C@H]2C[C@@H](C(=O)O)[C@H](N)[C@@H]1C2 [Compound 29, (1R,2R,3R,5R)-2-Amino-6,6-Dimethylbicyclo[3.1.1]Heptan-3-Carboxylic Acid]	250 to 252						
COC(=O)N(C1c2ccccc2-c2ccccc21)[C@H]1[C@H](C(=O)O)C[C@H]2C[C@@H]1C2(C)C [Compound 30, (1R,2R,3R,5R)-2-(9H-Fluoren-9-yl-Methoxycarbonylamino)-6,6-Dimethylbicyclo[3.1.1]Heptan-3-Carboxylic Acid]	155 to 157						
CCOC(=O)[C@H](Cc1ccccc1)NC(=O)[C@@H]1C[C@@H]2C[C@H]([C@@H]1NC(=O)OC(C)(C)C)C2(C)C [Compound 38]		0.79	2.33	6.73	19.92	125.3	
CC1(C)[C@@H]2C[C@H](C(=O)O)[C@@H](NC(=O)OCC3c4ccccc4-c4ccccc43)[C@H]1C2 [Compound 41, (1S,2S,3S,5S)-2-(9H-Fluoren-9-yl-Methoxycarbonylamino)-6,6-Dimethylbicyclo[3.1.1]Heptan-3-Carboxylic Acid]							Vrel = effect related to Verapamil (P-glycoprotein; Table 3, 4 μg/ml): 0.07; R = ratio of fluorescence and activity (P-glycoprotein; Table 3, 4 μg/ml): 0.86; Vrel = effect related to Verapamil (P-glycoprotein; Table 3, 40 μg/ml): 0.11; R = ratio of fluorescence and activity (P-glycoprotein; Table 3, 40 μg/ml): 1.25
CCOC(=O)[C@H]1C[C@H]2C[C@@H]([C@H]1NC(=S)Nc1cccc(OC)c1)C2(C)C [Compound 44, (1R,2R,3S,5R)-1-(3-Ethoxycarbonyl-6,6-Dimethylbicyclo[3.1.1]Heptan-2-yl)-3-(3-Methoxyphenyl)-Thiourea]	132 to 135	0.41	2.02	4.47	22	128.1	Multidrug resistance reversing effect (in words) (P-glycoprotein): significant dose-dependent effect
CCOC(=O)[C@H]1C[C@H]2C[C@@H]([C@H]1NC(=O)Nc1ccc(Cl)cc1)C2(C)C [Compound 45, (1R,2R,3S,5R)-1-(3-Ethoxycarbonyl-6,6-Dimethylbicyclo[3.1.1]Heptan-2-yl) -3-(4-Chlorophenyl)-Urea]	170 to 171	1.52	7.46	2.21	10.89	176.7	
CCOC(=O)[C@H]1C[C@H]2C[C@@H]([C@H]1NC(=S)NCCc1ccc(OC)c(OC)c1)C2(C)C [Compound 46, (1R,2R,3S,5R)-1-(3-Ethoxycarbonyl-6,6-Dimethylbicyclo[3.1.1]Heptan-2-yl) -3-(3,4-Dimethoxyphenylethyl)-Thiourea]	125 to 126	0.82	4.02	4.46	21.92	182.2	Multidrug resistance reversing effect (in words) (P-glycoprotein): significant dose-dependent effect
CCOC(=O)[C@H]1C[C@H]2C[C@@H]([C@H]1N(Cc1ccccc1)C(=O)Nc1ccc(Cl)cc1)C2(C)C [Compound 48, (1R,2R,3S,5R)-1-Benzyl-1-(3-Ethoxycarbonyl-6,6-Dimethylbicyclo[3.1.1]Heptan-2-yl)-3-(4-Chlorophenyl)-Urea]	202 to 205						
CCOC(=O)[C@@H]1C[C@H]2C[C@@H]([C@H]1NC(=S)NCCc1ccc(OC)c(OC)c1)C2(C)C [Compound 51, (1R,2R,3R,5R)-1-(3-Ethoxycarbonyl-6,6-Dimethylbicyclo[3.1.1]Heptan-2-yl)-3-(3,4-Dimethoxyphenyl-Ethyl)-Thiourea]		2.70	13.29	9.96	49.02		Multidrug resistance reversing effect (in words) (P-glycoprotein): significant dose-dependent effect
CCOC(=O)[C@@H]1C[C@@H]2C[C@H]([C@@H]1NC(=S)Nc1cccc(OC)c1)C2(C)C [Compound 54, (1S,2S,3R,5S)-1-(3-Ethoxycarbonyl-6,6-Dimethylbicyclo[3.1.1]Heptan-2-yl) -3-(3-Methoxyphenyl)-Thiourea]		0.48	2.37	5.36	26.35		
CCOC(=O)[C@H]1C[C@@H]2C[C@H]([C@@H]1NC(=S)Nc1cccc(OC)c1)C2(C)C [Compound 55, (1S,2S,3S,5S)-1-(3-Ethoxycarbonyl-6,6-Dimethylbicyclo[3.1.1]Heptan-2-yl)-3-(3-Methoxyphenyl)-Thiourea]		0.62	3.07	2.44	11.99	214.1	
CCOC(=O)[C@H]1C[C@@H]2C[C@H]([C@@H]1NC(=O)Nc1ccc(Cl)cc1)C2(C)C [Compound 56, (1S,2S,3S,5S)-1-(3-Ethoxycarbonyl-6,6-Dimethylbicyclo[3.1.1]Heptan-2-yl)-3-(4-Chlorophenyl)-Urea]						116.8	Multidrug resistance reversing effect (in words) (P-glycoprotein): significant dose-dependent effect; Vrel = effect related to Verapamil (P-glycoprotein; Table 3, 4 μg/ml): 0.14; R = ratio of fluorescence and activity (P-glycoprotein; Table 3, 4 μg/ml): 1.57; Vrel = effect related to Verapamil (P-glycoprotein; Table 3, 40 μg/ml): 3.43; R = ratio of fluorescence and activity (P-glycoprotein; Table 3, 40 μg/ml): 39.39
